Measurements: patent publication US10906878B2, “Kinase inhibitors for the treatment of disease” (Dana-Farber Cancer Institute, Inc., priority 2013, dated 2021)

Columns and labels:
Ba/F3 TYK2_E957D = Ba/F3 TYK2_E957D (Homo sapiens (Human), UniProt P29597, E957D); assay: Inhibition of Ba/F3 TYK2_E957D cell line; type: cell-based; conditions: read-out: IC50 (μM) Ba/F3 TYK2_E957D
Description: (§1) Growth and inhibition of growth was assessed by MTS assay. This assay, a colorimetric method for determining the number of viable cells, is based on the bioreduction of 3-(4,5-dimethylthiazol-2-yl)-5-(3-carboxymethoxyphenyl)-2-(4-sulfophenyl)-2H-tetrazolium (MTS) by cells to a formazan product that is soluble in cell culture medium, can be detected spectrophotometrically and was performed according to the manufacturer's recommended conditions. Ba/F3 cells were exposed to treatment for 72 hours and the number of cells used per experiment determined empirically to assure linear growth kinetics over that time period. All experimental points were set up in six to twelve wells and all experiments were repeated at least three times. […] The curves were fitted using a non-linear regression model with a sigmoidal dose response.

Ba/F3 TEL-ABL = Ba/F3 TEL-ABL (Homo sapiens, UniProt P00519); assay: Inhibition of Ba/F3 TEL-ABL cell line; type: cell-based; conditions: read-out: IC50 (μM) Ba/F3 TEL-ABL
Sequence of Ba/F3 TEL-ABL (P00519 whole entry, looked up, change not shown): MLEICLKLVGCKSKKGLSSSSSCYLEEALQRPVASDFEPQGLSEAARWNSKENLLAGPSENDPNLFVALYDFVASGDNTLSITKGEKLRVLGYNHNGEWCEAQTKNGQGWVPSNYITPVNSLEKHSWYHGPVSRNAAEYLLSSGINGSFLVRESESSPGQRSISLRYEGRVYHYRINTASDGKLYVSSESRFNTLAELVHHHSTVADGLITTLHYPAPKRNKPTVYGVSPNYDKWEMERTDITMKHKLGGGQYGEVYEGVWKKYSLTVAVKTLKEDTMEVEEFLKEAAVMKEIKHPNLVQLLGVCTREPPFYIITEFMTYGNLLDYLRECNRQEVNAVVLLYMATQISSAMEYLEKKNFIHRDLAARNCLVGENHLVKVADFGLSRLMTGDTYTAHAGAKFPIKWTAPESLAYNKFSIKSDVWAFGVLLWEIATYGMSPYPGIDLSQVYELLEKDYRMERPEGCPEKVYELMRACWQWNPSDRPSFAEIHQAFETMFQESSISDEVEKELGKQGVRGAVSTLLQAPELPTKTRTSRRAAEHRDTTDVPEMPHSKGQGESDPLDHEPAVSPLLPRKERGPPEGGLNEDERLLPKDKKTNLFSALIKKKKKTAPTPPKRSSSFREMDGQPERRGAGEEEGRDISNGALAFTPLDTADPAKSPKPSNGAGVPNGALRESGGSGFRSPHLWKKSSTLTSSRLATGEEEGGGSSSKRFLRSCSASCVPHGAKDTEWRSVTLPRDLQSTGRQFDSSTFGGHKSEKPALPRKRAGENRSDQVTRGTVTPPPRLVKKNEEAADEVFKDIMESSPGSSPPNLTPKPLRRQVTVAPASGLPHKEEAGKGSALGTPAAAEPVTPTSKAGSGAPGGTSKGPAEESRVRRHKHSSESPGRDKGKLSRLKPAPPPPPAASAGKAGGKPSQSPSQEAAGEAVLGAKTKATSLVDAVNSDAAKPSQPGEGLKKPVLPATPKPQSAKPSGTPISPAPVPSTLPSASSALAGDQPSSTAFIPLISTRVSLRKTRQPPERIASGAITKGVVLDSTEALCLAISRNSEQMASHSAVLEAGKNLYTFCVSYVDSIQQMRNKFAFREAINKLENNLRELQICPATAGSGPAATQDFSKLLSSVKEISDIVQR
Description: as §1

Ba/F3 TEL-JAK3 = Ba/F3 TEL-JAK3 (Homo sapiens, UniProt P52333); assay: Inhibition of Ba/F3 TEL-JAK3 cell line; type: cell-based; conditions: read-out: IC50 (μM) Ba/F3 TEL-JAK3
Sequence of Ba/F3 TEL-JAK3 (P52333 whole entry, looked up, change not shown): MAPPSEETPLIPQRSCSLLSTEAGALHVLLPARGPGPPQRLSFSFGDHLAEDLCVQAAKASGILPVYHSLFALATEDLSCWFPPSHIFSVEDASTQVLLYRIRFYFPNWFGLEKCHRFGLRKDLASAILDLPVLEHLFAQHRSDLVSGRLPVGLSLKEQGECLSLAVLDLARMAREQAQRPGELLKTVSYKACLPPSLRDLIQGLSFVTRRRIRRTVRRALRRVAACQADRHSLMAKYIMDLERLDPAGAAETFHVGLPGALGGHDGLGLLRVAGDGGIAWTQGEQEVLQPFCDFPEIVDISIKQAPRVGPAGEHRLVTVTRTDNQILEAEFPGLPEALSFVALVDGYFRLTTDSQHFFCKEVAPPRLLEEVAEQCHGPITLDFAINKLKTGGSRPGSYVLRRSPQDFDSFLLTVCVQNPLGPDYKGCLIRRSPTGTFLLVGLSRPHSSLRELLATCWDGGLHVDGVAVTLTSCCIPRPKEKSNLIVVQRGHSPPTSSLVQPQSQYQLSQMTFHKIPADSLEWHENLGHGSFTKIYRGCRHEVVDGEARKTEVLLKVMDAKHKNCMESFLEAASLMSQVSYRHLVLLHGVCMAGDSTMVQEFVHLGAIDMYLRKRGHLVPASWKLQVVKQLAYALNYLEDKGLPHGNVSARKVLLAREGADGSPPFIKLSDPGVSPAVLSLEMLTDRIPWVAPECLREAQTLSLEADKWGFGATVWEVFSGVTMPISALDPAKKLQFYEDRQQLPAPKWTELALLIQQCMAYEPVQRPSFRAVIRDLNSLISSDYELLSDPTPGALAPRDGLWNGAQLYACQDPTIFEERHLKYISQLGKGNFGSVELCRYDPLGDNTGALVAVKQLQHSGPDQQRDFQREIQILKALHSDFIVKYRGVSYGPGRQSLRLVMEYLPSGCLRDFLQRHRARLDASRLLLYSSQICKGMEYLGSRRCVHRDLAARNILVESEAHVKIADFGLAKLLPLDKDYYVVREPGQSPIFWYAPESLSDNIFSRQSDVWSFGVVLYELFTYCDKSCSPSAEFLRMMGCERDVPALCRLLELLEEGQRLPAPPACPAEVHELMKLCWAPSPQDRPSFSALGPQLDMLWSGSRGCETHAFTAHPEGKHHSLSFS
Description: as §1

Ba/F3 TEL-JAK1 = Ba/F3 TEL-JAK1 (Homo sapiens, UniProt P23458); assay: Inhibition of Ba/F3 TEL-JAK1 cell line; type: cell-based; conditions: read-out: IC50 (μM) Ba/F3 TEL-JAK1
Description: as §1

Ba/F3 TEL-JAK2 = Ba/F3 TEL-JAK2 (Homo sapiens, UniProt O60674); assay: Inhibition of Ba/F3 TEL-JAK2 cell line; type: cell-based; conditions: read-out: IC50 (μM) Ba/F3 TEL-JAK2
Sequence of Ba/F3 TEL-JAK2 (O60674 whole entry, looked up, change not shown): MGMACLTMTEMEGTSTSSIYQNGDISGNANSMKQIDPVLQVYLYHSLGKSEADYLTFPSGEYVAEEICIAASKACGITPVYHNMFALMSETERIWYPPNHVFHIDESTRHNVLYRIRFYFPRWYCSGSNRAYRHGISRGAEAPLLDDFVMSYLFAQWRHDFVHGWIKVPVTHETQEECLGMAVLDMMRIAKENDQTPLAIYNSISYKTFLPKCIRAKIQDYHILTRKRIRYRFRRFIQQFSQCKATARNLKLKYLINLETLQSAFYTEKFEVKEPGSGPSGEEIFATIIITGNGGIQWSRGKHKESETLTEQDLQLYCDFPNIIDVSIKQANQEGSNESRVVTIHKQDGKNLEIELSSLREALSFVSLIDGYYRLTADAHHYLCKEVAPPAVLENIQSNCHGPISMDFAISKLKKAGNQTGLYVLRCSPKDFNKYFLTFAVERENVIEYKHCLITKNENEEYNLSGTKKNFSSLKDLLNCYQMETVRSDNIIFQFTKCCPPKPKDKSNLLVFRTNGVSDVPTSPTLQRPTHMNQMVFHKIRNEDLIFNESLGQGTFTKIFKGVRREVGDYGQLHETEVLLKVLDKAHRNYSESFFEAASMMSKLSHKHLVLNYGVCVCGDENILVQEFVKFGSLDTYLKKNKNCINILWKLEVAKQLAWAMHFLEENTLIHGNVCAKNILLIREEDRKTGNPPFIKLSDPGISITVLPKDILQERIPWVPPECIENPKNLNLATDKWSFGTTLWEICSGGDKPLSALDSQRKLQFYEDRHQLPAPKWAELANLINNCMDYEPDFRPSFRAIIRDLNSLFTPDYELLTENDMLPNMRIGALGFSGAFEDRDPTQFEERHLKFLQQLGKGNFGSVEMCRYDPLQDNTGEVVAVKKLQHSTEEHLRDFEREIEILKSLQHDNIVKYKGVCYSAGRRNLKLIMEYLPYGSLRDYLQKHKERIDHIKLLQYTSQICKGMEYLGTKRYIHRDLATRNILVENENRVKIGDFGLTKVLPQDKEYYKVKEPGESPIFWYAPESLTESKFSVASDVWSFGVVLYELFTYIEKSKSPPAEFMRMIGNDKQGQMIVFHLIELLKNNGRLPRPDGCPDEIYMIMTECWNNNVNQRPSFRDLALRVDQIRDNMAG
Description: as §1

TEC = TEC (Homo sapiens (Human), UniProt P42680); assay: Kinase inhibition TEC; type: biochemical
BLK = BLK (Homo sapiens (Human), UniProt P51451); assay: Kinase inhibition BLK; type: biochemical
ITK = ITK (Homo sapiens (Human), UniProt Q08881); assay: Kinase inhibition ITK; type: biochemical
TXK = TXK (Homo sapiens (Human), UniProt P42681); assay: Kinase inhibition TXK; type: biochemical
Sequence of TXK (P42681 whole entry): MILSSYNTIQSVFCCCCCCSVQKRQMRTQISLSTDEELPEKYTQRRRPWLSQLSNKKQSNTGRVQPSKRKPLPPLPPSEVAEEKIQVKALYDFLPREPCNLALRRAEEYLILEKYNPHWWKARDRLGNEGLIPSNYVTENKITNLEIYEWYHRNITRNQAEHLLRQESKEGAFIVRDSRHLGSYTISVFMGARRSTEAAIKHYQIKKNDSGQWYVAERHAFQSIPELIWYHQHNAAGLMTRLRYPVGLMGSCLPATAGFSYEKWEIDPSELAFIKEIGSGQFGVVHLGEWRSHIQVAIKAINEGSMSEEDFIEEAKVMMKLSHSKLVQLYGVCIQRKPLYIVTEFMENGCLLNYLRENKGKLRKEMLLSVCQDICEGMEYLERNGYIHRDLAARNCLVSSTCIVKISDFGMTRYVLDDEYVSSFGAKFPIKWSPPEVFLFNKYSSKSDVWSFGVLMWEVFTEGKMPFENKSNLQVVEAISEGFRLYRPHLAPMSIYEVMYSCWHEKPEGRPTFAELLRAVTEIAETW

Sequence of Ba/F3 TYK2_E957D (P29597 whole entry E957D): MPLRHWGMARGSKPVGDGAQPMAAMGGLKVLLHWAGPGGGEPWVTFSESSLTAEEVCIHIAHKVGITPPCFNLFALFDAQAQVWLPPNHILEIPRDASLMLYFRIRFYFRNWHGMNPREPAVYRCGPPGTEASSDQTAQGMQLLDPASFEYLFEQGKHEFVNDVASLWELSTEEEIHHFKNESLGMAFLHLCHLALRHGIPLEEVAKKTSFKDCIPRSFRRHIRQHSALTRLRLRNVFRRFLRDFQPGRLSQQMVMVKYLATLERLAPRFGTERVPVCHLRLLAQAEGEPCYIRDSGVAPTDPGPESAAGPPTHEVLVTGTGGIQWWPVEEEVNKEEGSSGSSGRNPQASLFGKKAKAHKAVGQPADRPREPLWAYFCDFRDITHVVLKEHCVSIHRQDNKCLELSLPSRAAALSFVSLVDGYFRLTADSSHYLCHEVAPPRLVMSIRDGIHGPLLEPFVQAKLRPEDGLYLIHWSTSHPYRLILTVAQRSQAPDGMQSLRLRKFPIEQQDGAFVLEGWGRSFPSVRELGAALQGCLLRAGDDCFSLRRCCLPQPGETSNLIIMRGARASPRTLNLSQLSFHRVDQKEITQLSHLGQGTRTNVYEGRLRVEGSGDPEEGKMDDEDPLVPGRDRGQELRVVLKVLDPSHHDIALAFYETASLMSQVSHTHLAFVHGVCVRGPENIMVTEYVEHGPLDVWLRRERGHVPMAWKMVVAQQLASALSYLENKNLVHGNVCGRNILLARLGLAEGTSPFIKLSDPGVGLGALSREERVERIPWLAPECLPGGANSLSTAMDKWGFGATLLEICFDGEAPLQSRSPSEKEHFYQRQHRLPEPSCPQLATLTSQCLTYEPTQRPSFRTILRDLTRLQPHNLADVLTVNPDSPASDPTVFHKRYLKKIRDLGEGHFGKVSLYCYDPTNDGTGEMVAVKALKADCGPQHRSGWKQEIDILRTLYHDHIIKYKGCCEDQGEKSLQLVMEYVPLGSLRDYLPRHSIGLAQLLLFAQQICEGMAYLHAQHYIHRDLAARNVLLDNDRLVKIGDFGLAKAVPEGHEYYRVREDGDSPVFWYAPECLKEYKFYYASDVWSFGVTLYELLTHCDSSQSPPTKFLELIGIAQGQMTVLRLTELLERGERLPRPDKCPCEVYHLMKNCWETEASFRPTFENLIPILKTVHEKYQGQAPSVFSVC

Structure (SMILES)	IC50 (Ba/F3 TYK2_E957D)	IC50 (Ba/F3 TEL-ABL)	IC50 (Ba/F3 TEL-JAK3)	IC50 (Ba/F3 TEL-JAK1)	IC50 (Ba/F3 TEL-JAK2)	Kinase inhibition (% control, 1000 nM compound) TEC (TEC)	Kinase inhibition (% control, 1000 nM compound) BLK (BLK)	Kinase inhibition (% control, 1000 nM compound) ITK (ITK)	Kinase inhibition (% control, 1000 nM compound) TXK (TXK)
C=CC(=O)Nc1cccc(N(C(=O)OCc2ccccc2)c2ccnc(Nc3cnn(C4CCOCC4)c3)n2)c1 [Compound 84A]	4.17 µM	11.3 µM	0.139 µM	7.41 µM	18.1 µM	–	–	–	–
C=CC(=O)Nc1cccc(N(C(=O)OCc2ccccc2)c2ccnc(Nc3cnn(CCN4CCOCC4)c3)n2)c1 [Compound 85A]	4.37 µM	16.1 µM	0.189 µM	8.86 µM	18.3 µM	–	–	–	–
C=CC(=O)Nc1cccc(N(C(=O)OCc2ccccc2)c2ccnc(Nc3cnn(C)c3)n2)c1 [Compound 83A]	2.95 µM	16.7 µM	0.107 µM	9 µM	17.5 µM	5.7 % control	0.4 % control	66 % control	3.8 % control
